# Molecular target: T1, MAT2A homodimer (Homo sapiens, UniProt P31153)
# T1 construct: inferred from Ni sepharose purification and imidazole elution; made in house; host or cells: Sf9 insect cells, recombinant baculovirus (Bac to Bac, pFASTBAC1)
# Experiment: Biochemical assay: inhibition of MAT2A (phosphate release, PiColorLock Gold)
# Details: MAT2A IC50 score; read-out: Enzyme Inhibition (Example 275)
# Description: Mat2A protein was expressed by recombinant baculovirus in SF9 infected cells using the Bac to Bac system cloned into the pFASTBAC1 vector (Invitrogen, Carlsbad, Calif.). Recombinant MAT2A was isolated from the cell lysate of 150 g of infected cells using HP Ni sepharose column chromatography. Recombinant MAT2A homodimer was eluted with 250 and 500 mM imidazole, and fractions containing MAT2A were identified by sodium dodecyl sulfate polyacrylamide gel electrophoresis and pooled.
# For determination of the inhibitory potency of compounds against the MAT2A homodimer, protein was diluted to […] in assay buffer (50 mM Tris, pH 8.0, 50 mM KCl, 15 mM MgCl2, 0.3 mM EDTA, 0.005% [w/v] bovine serum albumin [BSA]). Test compound was prepared in 100% dimethyl sulfoxide (DMSO) at 50× the desired final concentration. […] of compound dilution was added to 40 μL of enzyme dilution and the mixture was allowed to equilibrate for 60 minutes at 25° C. The enzymatic assay was initiated by the addition of 10 μL of substrate mix (500 μM ATP, pH 7.0, 400 μM L-methionine in 1× assay buffer), and the mixture was incubated for a further 60 minutes at 25° C. The reaction was halted and the liberated phosphate released by the enzyme in stoichiometric amounts by the production of S-adenosyl methionine (SAM) was measured using the PiColorLock Gold kit (Innova Biosciences, UK). Absolute product amounts were determined by comparison to a standard curve of potassium phosphate buffer, pH 8.0.
# T1 sequence (P31153 whole entry): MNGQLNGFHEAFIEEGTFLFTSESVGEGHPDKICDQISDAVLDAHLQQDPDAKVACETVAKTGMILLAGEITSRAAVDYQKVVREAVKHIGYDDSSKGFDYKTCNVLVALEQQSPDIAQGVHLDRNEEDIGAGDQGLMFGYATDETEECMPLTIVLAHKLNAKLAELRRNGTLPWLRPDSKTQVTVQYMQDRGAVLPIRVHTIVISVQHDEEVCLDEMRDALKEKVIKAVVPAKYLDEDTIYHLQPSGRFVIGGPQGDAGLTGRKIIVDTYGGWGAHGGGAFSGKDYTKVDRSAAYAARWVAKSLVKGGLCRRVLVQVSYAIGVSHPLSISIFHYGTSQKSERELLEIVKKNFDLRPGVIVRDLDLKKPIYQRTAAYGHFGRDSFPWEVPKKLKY
row,SMILES,IC50 [nM]
1,"COc1ccc(-c2c(=O)n(-c3ccc4ncncc4c3)cc3cnc(NCC(F)(F)F)nc23)cc1 [Example 146, 8-(4-methoxyphenyl)-6-(quinazolin-6-yl)-2-((2,2,2-trifluoroethyl)amino)pyrido[4,3-d]pyrimidin-7(6H)-one]",100 to 1000
2,"COc1ccc(-n2cc3cnc(NCC4CC4)nc3c(-c3ccc(Br)cc3)c2=O)cc1 [Example 190, 8-(4-bromophenyl)-2-((cyclopropylmethyl)amino)-6-(4-methoxyphenyl)pyrido[4,3-d]pyrimidin-7(6H)-one]",< 100
3,"Cn1cc2cc(-n3cc4cnc(NC5CCC5)nc4c(-c4ccc(OC(F)F)cc4)c3=O)ccc2n1 [Example 174, 2-(cyclobutylamino)-8-(4-(difluoromethoxy)phenyl)-6-(2-methyl-2H-indazol-5-yl)pyrido[4,3-d]pyrimidin-7(6H)-one]",< 100
4,"COc1ccc(N2Cc3cnc(NC4CCC4)nc3C3(CCN(Cc4cc[nH]n4)C3)C2=O)cc1 (stereo not drawn) [Example 112, 1′-((1H-pyrazol-3-yl)methyl)-2-(cyclobutylamino)-6-(4-methoxyphenyl)-5H-spiro[pyrido[4,3-d]pyrimidine-8,3′-pyrrolidin]-7(6H)-one]",100 to 1000
5,"CNc1ncc2cn(-c3ccc4ncccc4c3)c(=O)c(-c3ccc(OC(F)F)cc3)c2n1 [Example 184, 8-(4-(difluoromethoxy)phenyl)-2-(methylamino)-6-(quinolin-6-yl)pyrido[4,3-d]pyrimidin-7(6H)-one]",< 100
6,"CC(C)n1cnc2ccc(-n3cc4cnc(NCC(F)(F)F)nc4c(-c4ccc(Cl)cc4)c3=O)cc21 [Example 128, 8-(4-chlorophenyl)-6-(1-isopropyl-1H-benzo[d]imidazol-6-yl)-2-(2,2,2-trifluoroethylamino)pyrido[4,3-d]pyrimidin-7(6H)-one]",< 100
7,"COc1ccc(N2Cc3cnc(NCC(C)C)nc3C3(CCN(Cc4cc[nH]n4)C3)C2=O)cc1 (stereo not drawn) [Example 113, 1′-((1H-pyrazol-3-yl)methyl)-2-(isobutylamino)-6-(4-methoxyphenyl)-5H-spiro[pyrido[4,3-d]pyrimidine-8,3′-pyrrolidin]-7(6H)-one]",100 to 1000
8,"Cn1cc2cc(-n3cc4cnc(NCC(F)F)nc4c(-c4ccc(OC(F)F)cc4)c3=O)ccc2n1 [Example 175, 2-((2,2-difluoroethyl)amino)-8-(4-(difluoromethoxy)phenyl)-6-(2-methyl-2H-indazol-5-yl)pyrido[4,3-d]pyrimidin-7(6H)-one]",< 100
9,"O=C1N(c2cnoc2)Cc2cnc(NCC3CC3)nc2C12CCN(Cc1ccccc1F)C2 (stereo not drawn) [Example 121, 2-((cyclopropylmethyl)amino)-1′-(2-fluorobenzyl)-6-(isoxazol-4-yl)-5,6-dihydro-7H-spiro[pyrido[4,3-d]pyrimidine-8,3′-pyrrolidin]-7-one]",100 to 1000
10,"COc1ccc(-n2cc3cnc(NCCC(F)(F)F)nc3c(-c3ccc(Br)cc3)c2=O)cc1 [Example 186, 8-(4-bromophenyl)-6-(4-methoxyphenyl)-2-((3,3,3-trifluoropropyl)amino)pyrido[4,3-d]pyrimidin-7(6)-one]",100 to 1000
11,"Cn1cc2cc(-n3cc4cnc(NC5CC5)nc4c(-c4ccc(Cl)cc4)c3=O)ccc2n1 [Example 173, 8-(4-chlorophenyl)-2-(cyclopropylamino)-6-(2-methyl-2H-indazol-5-yl)pyrido[4,3-d]pyrimidin-7(6H)-one]",< 100
12,"Cn1cc2cc(-n3cc4cnc(NCC(F)(F)F)nc4c(-c4ccc(Cl)cc4)c3=O)cnc2n1 [Example 126, 8-(4-chlorophenyl)-6-(2-methyl-2H-pyrazolo[3,4-b]pyridin-5-yl)-2-((2,2,2-trifluoroethyl)amino)pyrido[4,3-d]pyrimidin-7(6H)-one]",1000 to 10000
13,"Cc1ccc2cc(-n3cc4cnc(NCC(F)(F)F)nc4c(-c4ccc(C5CC5)cc4)c3=O)ccc2n1 [Example 162, 8-(4-cyclopropylphenyl)-6-(2-methylquinolin-6-yl)-2-((2,2,2-trifluoroethyl)amino)pyrido[4,3-d]pyrimidin-7(6H)-one]",< 100
14,"COc1ccc(-n2cc3cnc(OCC(F)(F)F)nc3c(-c3ccc(Br)cc3)c2=O)cc1 [Example 261, 8-(4-bromophenyl)-6-(4-methoxyphenyl)-2-(2,2,2-trifluoroethoxy)pyrido[4,3-d]pyrimidin-7(6H)-one]",< 100
15,"COc1ccc(-n2cc3cnc(N(C)CC(F)(F)F)nc3c(-c3ccc(Br)cc3)c2=O)cc1 [Example 187, 8-(4-bromophenyl)-6-(4-methoxyphenyl)-2-(methyl(2,2,2-trifluoroethyl)amino)pyrido[4,3-d]pyrimidin-7(6H)-one]",1000 to 10000
16,"COc1cc(CN2Cc3cnc(NCC4CC4)nc3C3(CCN(Cc4ccccc4F)C3)C2=O)ccn1 (stereo not drawn) [Example 119, 2-((cyclopropylmethyl)amino)-1′-(2-fluorobenzyl)-6-((2-methoxypyridin-4-yl)methyl)-5,6-dihydro-7H-spiro[pyrido[4,3-d]pyrimidine-8,3′-pyrrolidin]-7-one]",1000 to 10000
17,"O=c1c(-c2ccc(C3CC3)cc2)c2nc(NCC(F)(F)F)ncc2cn1-c1ccc2nc(C(F)(F)F)ccc2c1 [Example 163, 8-(4-cyclopropylphenyl)-2-((2,2,2-trifluoroethyl)amino)-6-(2-(trifluoromethyl)quinolin-6-yl)pyrido[4,3-d]pyrimidin-7(6H)-one]",1000 to 10000
18,"O=C1N(c2cnoc2)Cc2cnc(NCC3CC3)nc2C12CCN(Cc1cscn1)C2 (stereo not drawn) [Example 107, 2-((cyclopropylmethyl)amino)-6-(isoxazol-4-yl)-1′-(thiazol-4-ylmethyl)-5H-spiro[pyrido[4,3-d]pyrimidine-8,3′-pyrrolidin]-7(6H)-one]",1000 to 10000
19,"O=C1N(c2cnoc2)Cc2cnc(NCC3CC3)nc2C12CCN(Cc1n[nH]cc1Cl)C2 (stereo not drawn) [Example 108, 1′-((4-chloro-1H-pyrazol-3-yl)methyl)-2-((cyclopropylmethyl)amino)-6-(isoxazol-4-yl)-5H-spiro[pyrido[4,3-d]pyrimidine-8,3′-pyrrolidin]-7(6H)-one]",1000 to 10000
20,"CCOc1ncc2cn(-c3ccc4ncccc4c3)c(=O)c(-c3ccc(OC(F)F)cc3)c2n1 [Example 271, 8-(4-(difluoromethoxy)phenyl)-2-ethoxy-6-(quinolin-6-yl)pyrido[4,3-d]pyrimidin-7(6H)-one]",< 100
21,"O=c1c(-c2ccc(Cl)cc2)c2nc(NCC(F)(F)F)ncc2cn1-c1ccc2nscc2c1 [Example 125, 6-(benzo[c]isothiazol-5-yl)-8-(4-chlorophenyl)-2-((2,2,2-trifluoroethyl)amino)pyrido[4,3-d]pyrimidin-7(6H)-one]",< 100
22,"COc1ccc(-n2cc3cnc(NCC(F)(F)F)nc3c(-c3ccc(OC(F)(F)F)cc3)c2=O)cc1 [Example 196, 6-(4-methoxyphenyl)-2-((2,2,2-trifluoroethyl)amino)-8-(4-(trifluoromethoxy)phenyl)pyrido[4,3-d]pyrimidin-7(6H)-one]",< 100
23,"COc1ccc(N2Cc3cnc(NCC(F)(F)F)nc3C3(CCN(c4nnc(N)s4)CC3)C2=O)cc1 [Example 117, 1-(5-amino-1,3,4-thiadiazol-2-yl)-6′-(4-methoxyphenyl)-2′-((2,2,2-trifluoroethyl)amino)-5′H-spiro[piperidine-4,8′-pyrido[4,3-d]pyrimidin]-7′(6′H)-one]",1000 to 10000
24,"COc1ccc(N2Cc3cnc(NCC4CC4)nc3C3(CCN(Cc4cc[nH]n4)C3)C2=O)cc1 (stereo not drawn) [Example 101, 1′-((1H-pyrazol-3-yl)methyl)-2-((cyclopropylmethyl)amino)-6-(4-methoxyphenyl)-5H-spiro[pyrido[4,3-d]pyrimidine-8,3′-pyrrolidin]-7(6H)-one]",100 to 1000
25,COc1ccc(N2Cc3cnc(NCC(F)(F)F)nc3C3(CCN(Cc4cc[nH]n4)C3)C2=O)cc1 (stereo not drawn) [Example 110],100 to 1000
26,"CCNc1ncc2cn(-c3ccc4nn(C)cc4c3)c(=O)c(-c3ccc(OC(F)(F)F)cc3)c2n1 [Example 170, 2-(ethylamino)-6-(2-methyl-2H-indazol-5-yl)-8-(4-(trifluoromethoxy)phenyl)pyrido[4,3-d]pyrimidin-7(6H)-one]",< 100
27,"O=c1c(-c2ccc(OCC(F)F)cc2)c2nc(NCC(F)(F)F)ncc2cn1-c1ccc2ncccc2c1 [Example 201, 8-(4-(2,2-difluoroethoxy)phenyl)-6-(quinolin-6-yl)-2-((2,2,2-trifluoroethyl)amino)pyrido[4,3-d]pyrimidin-7(6H)-one]",100 to 1000

# — US11524960B2, “Heterobicyclic inhibitors of MAT2A and methods of use for treating cancer” (AGIOS PHARMACEUTICALS, INC., priority 2018, dated 2022)
